Laboratory results as given in US20130071897A1, “METHOD FOR CONTROLLING UNDESIRABLE BYPRODUCTS FORMATION CAUSED BY CONTAMINATING ORGANISMS IN THE PRODUCTION OF ETHANOL FROM SYNGAS” (COSKATA, INC., priority 2011, published 2013).
Values joined by “and” are separate entries in the source; they are usually repeats but may differ in a detail not shown here. Equal values may be shown once.

Experiments:
Format in all cases: cell-based
butyrogen population = assay: 2-L continuous syngas fermenter with butyrogen-contaminated Clostridium autoethanogenum culture
Description: Additional experiments were conducted to determine the effect of the crotonyl derivatives in continuous fermentations containing butyrogen contamination. Compounds A and D were tested in a 2-L fermenter containing a seed culture from a 10,000 gallon bioreactor used in a large scale fermentation run.
To initiate the 2 liter fermentation a seed culture from the large scale fermenter was introduced into the 2 liter fermenter and grown on yeast extract to an OD greater than 1 at which time a substantial production of butyrogens was observed. The 2 liter fermenter was a Sartorius Biostat B Series fermenter that operated as a continuously stirred tank with a mixing speed of 200 rpm. After 24 hours of initial growth a gas stream having a composition 38% CO, 38% H2, 15% C02 and the balance CH4 was introduced into the fermenter. The fermentation was conducted at a temperature of 37° C., a pH of 5.30±0.05 and contained approximately 2 liters of fermentation media having a composition found in Table 8. Fresh fermentation media was continually added to the 2 liter fermenter at rate sufficient to establish a mean cell retention time of 5.8 days. The fermentation was allowed to progress and different concentrations of the compounds A and D were added to the fermentation as intermittent injections at different times. Each injection was allowed to wash out of the fermenter before next injection. The presence of acetate and butyrate compounds in the fermenter along with the OD of the fermentation media are shown in FIG. 3.
After approximately 500 hours of fermenter operation compound A was added directly into the fermenter to a concentration of 500 ppm when the OD was 1.82 and butyrate concentration was 4.5 g/L. Following introduction of the compound, the OD decreased rapidly by almost 50% in the first 24 hours and the butyrate concentration decreased by 20% in the same time period. Also in the first 24 hours the butanol content increased rapidly by 6-fold to 0.68 g/L, indicating rapid conversion of the butyric acid to butanol. The rate of conversion of the butyric acid and the dilution rate of the media combined to dramatically decrease the butyrate production rate until it was brought down to zero within 80 hours of initially adding compound A. (See FIG. 4) In addition the OD continued to decrease to a low of 0.54 after 80 hours.
After approximately 700 hours of fermenter operation and the washout of the first 500 ppm addition of compound A, another 50 ppm of compound A was added directly into the fermenter. A decrease in OD and butyrate concentration (See FIG. 3) followed the 50 ppm addition and continued for at least for the first 3 days.
After approximately another 8 days and the washout of the 50 ppm addition of compound A, the butyrate concentration increased to 2 g/L. At this time another 100 ppm of compound A was added directly into the fermenter approximately 890 hours into the run. […] After about 24 hours, the butyrate concentration began to decrease again declining almost 50% over the next 4 days. (See FIG. 3)
Fermenter operation was continued under the same operating conditions following the 100 ppm addition of compound A. After allowing 20 days for the complete wash out of compound A, 100 ppm of compound D was added directly into the fermenter approximately 1370 hours into the fermenter run. Upon the addition of compound D there was a sharp rise in the ethanol concentration and acetic acid concentration accompanied by a decrease in the butyrate production.
For 12 days after the first injection of compound D into the fermenter, the fermenter was allowed to wash out compound D. Then 500 ppm of compound D was injected directly into the fermenter after about 1660 hours of fermenter operation. (See FIG. 3) The resulting concentrations of the C2 and C4 alcohols and acids from the time of adding the 500 ppm of compound D are shown in Table 10.

[1] = system: Clostridium tyrobutyricum; assay: Butyric acid by gas chromatography in Clostridium tyrobutyricum batch fermentations; conditions: 5 mM, duplicates A and B
Description: The concentration of butyric acid is determined by gas chromatography for several of the above samples at the stated points in time. The butyrate production is calculated based upon peak area calculations generated by the gas chromatograph. At 11 hours, the concentration of butyric acid for each of the controls is about 0.95 gram per liter, and the concentration of butyric acid for the samples containing 500 ppm of the inhibitor are about 0.6 gram per liter.
The concentration of butyric acid is determined by gas chromatography using the procedure set forth in Example 13. The control is reported only in Table 18.

C. carboxidivorans = assay: Product profiles of C. carboxidivorans cultures by GC-MSD; conditions: 500 and 1000 ppm; 54 hour cultures
Description: Product profiles were determined on the C. carboxidivorans cultures that grew in the presence of compound A. A GC-MSD was performed on 54 hour cultures and product distributions were calculated based on the resultant areas of the output (See FIG. 2). In cultures with no compound A addition, the distribution of C2, C4 and C6 acids and alcohols was similar in both samples. As the compound A concentration increased the amount of C2, particularly the alcohols, increased. […] Thus, such crotonate derivatives can effectively limit the amount of butyl impurity accumulation in the fermentation zone from heteroacetogens which can compete effectively in syngas cultures with homoacetogenic bacteria.

[2] = 500 ppm compound A, 0.0 Hr after addition
[3] = 500 ppm compound A, 24.0 Hr after addition
[4] = 500 ppm compound A, 49.0 Hr after addition
[5] = 500 ppm compound A, 80.0 Hr after addition
[6] = 500 ppm compound A, 121.0 Hr after addition
[7] = 500 ppm compound A, 145.0 Hr after addition
[8] = 500 ppm compound A, first 24 hours
[9] = approximately 140 hours after 500 ppm addition of compound A
[10] = 100 ppm compound D at approximately 1370 hours
[11] = 500 ppm compound D, 0 Hr after addition
[12] = 500 ppm compound D, 30 Hr after addition
[13] = 500 ppm compound D, 49 Hr after addition
[14] = 500 ppm compound D, 73 Hr after addition
[15] = 500 ppm compound D, 123 Hr after addition
[16] = 500 ppm compound D, 145 Hr after addition
[17] = 500 ppm compound D, 168 Hr after addition
[18] = 500 ppm compound D, 193 Hr after addition
[19] = 500 ppm compound D, 217 Hr after addition
[20] = 500 ppm compound D, 240 Hr after addition

With `CCOC(=O)C=C(C(F)(F)F)C(F)(F)F` [Compound A, ethyl 4,4,4-trifluoro-3-(trifluoromethyl)crotonate] the “Effect on the butyrogen population shortly after addition” value (butyrogen population; 2-L butyrogenic reactor, 500, 50 and 100 ppm trials) was “inhibitory and bactericidal effect”, the “Concentration of ethanol and acetic acid” value (butyrogen population; 50 ppm compound A at approximately 700 hours) was “continued increase” and the “OD and butyrate concentration” value (butyrogen population; 50 ppm compound A at approximately 700 hours, at least first 3 days) was “decrease”. The Ethanol concentration (butyrogen population; 100 ppm compound A at approximately 890 hours) was “began to immediately increase”, the “Decline of butyrate concentration” value (butyrogen population; 100 ppm compound A at approximately 890 hours, over 4 days, starting about 24 hours after addition) was ~50% and the Acetic acid (butyrogen population; [2]) was 3.237 g/L. For the same compound, the Butyric acid (butyrogen population; [2]) was 4.5 g/L and 4.503 g/L, the Ethanol (butyrogen population; [2]) was 0.026 g/L and the “OD @600 nm” value (butyrogen population; [2]) was 1.82. It also gave a n-Butanol (butyrogen population; [2]) of 0.109 g/L, an Acetic acid (butyrogen population; [3]) of 2.728 g/L and a Butyric acid (butyrogen population; [3]) of 3.600 g/L. For the same compound, the Ethanol (butyrogen population; [3]) was 0.266 g/L, the “OD @600 nm” value (butyrogen population; [3]) was 1.09 and the n-Butanol (butyrogen population; [3]) was 0.68 g/L and 0.681 g/L. For the same compound, the Acetic acid (butyrogen population; [4]) was 2.333 g/L, the Butyric acid (butyrogen population; [4]) was 3.074 g/L and the Ethanol (butyrogen population; [4]) was 0.255 g/L. The “OD @600 nm” value (butyrogen population; [4]) was 0.76, the n-Butanol (butyrogen population; [4]) was 0.601 g/L and the Acetic acid (butyrogen population; [5]) was 1.959 g/L. For the same compound, the Butyric acid (butyrogen population; [5]) was 2.542 g/L, the Ethanol (butyrogen population; [5]) was 0.212 g/L and the “OD @600 nm” value (butyrogen population; [5]) was 0.54. For the same compound, the n-Butanol (butyrogen population; [5]) was 0.497 g/L, the Acetic acid (butyrogen population; [6]) was 2.446 g/L and the Butyric acid (butyrogen population; [6]) was 1.842 g/L. The Ethanol (butyrogen population; [6]) was 0.345 g/L, the “OD @600 nm” value (butyrogen population; [6]) was 0.75 and the n-Butanol (butyrogen population; [6]) was 0.513 g/L. The Acetic acid (butyrogen population; [7]) was 4.082 g/L, the Butyric acid (butyrogen population; [7]) was 1.645 g/L and the Ethanol (butyrogen population; [7]) was 0.441 g/L. For the same compound, the “OD @600 nm” value (butyrogen population; [7]) was 1.17, the n-Butanol (butyrogen population; [7]) was 0.311 g/L and the “Decrease of OD” value (butyrogen population; [8]) was ~50%. For the same compound, the “Decrease of butyrate concentration” value (butyrogen population; [8]) was 20%, the “Increase of butanol content” value (butyrogen population; [8]) was 6 fold and the “Time until butyrate production rate was brought down to zero” value (butyrogen population; 500 ppm compound A, from initial addition) was ≤ 80 h. For the same compound, the Acetic acid production (butyrogen population; [9]) was “dramatic rise”, the Increase in ethanol (butyrogen population; [9]) was “over 100%” and the OD recovery (butyrogen population; [9]) was “nearly recovered to its original level”. For the same compound, the “Butyrate Production” value ([1]; 4.5 Hours) was 0.04 grams per liter, the “Butyrate Production” value ([1]; 6 Hours) was 0.06 grams per liter and 0.05 grams per liter and the “Butyrate Production” value ([1]; 24 Hours) was 0.10 grams per liter and 0.08 grams per liter. For the same compound, the “Product distribution of C2, C4 and C6 acids and alcohols” value (C. carboxidivorans) was “virtually all the product observed was the C2 alcohol”.

In the case of `O=C(O)C=C(C(F)(F)F)C(F)(F)F` [D, 4,4,4-trifluoro-3-(trifluoromethyl)crotonic acid], the Butanol concentration (butyrogen population; [10]) is reported as “rose temporarily”, the Butyrate Production (butyrogen population; [10]) is reported as “decrease” and the “Ethanol concentration and acetic acid concentration” value (butyrogen population; [10]) is reported as “sharp rise”. The “Inhibition of butyrogens versus homoacetogenic organisms” value (butyrogen population; 500 ppm compound D) was “butyrogens were specifically inhibited whereas the homoacetogenic organisms were not inhibited”, the Acetic acid (butyrogen population; [11]) was 8.72 g/L and the Butyric acid (butyrogen population; [11]) was 1.51 g/L. The EtOH (butyrogen population; [11]) was 0.55 g/L, the “OD @600 nm” value (butyrogen population; [11]) was 1.40 and the n-Butanol (butyrogen population; [11]) was 0.21 g/L. It also gave an Acetic acid (butyrogen population; [12]) of 8.48 g/L, a Butyric acid (butyrogen population; [12]) of 1.47 g/L and an EtOH (butyrogen population; [12]) of 0.61 g/L. The “OD @600 nm” value (butyrogen population; [12]) was 1.35, the n-Butanol (butyrogen population; [12]) was 0.23 g/L and the Acetic acid (butyrogen population; [13]) was 8.64 g/L. The Butyric acid (butyrogen population; [13]) was 1.44 g/L, the EtOH (butyrogen population; [13]) was 0.69 g/L and the “OD @600 nm” value (butyrogen population; [13]) was 1.23. The n-Butanol (butyrogen population; [13]) was 0.26 g/L, the Acetic acid (butyrogen population; [14]) was 8.56 g/L and the Butyric acid (butyrogen population; [14]) was 1.37 g/L. For the same compound, the EtOH (butyrogen population; [14]) was 0.68 g/L, the “OD @600 nm” value (butyrogen population; [14]) was 1.12 and the n-Butanol (butyrogen population; [14]) was 0.26 g/L. It also gave an Acetic acid (butyrogen population; [15]) of 8.72 g/L, a Butyric acid (butyrogen population; [15]) of 1.41 g/L and an EtOH (butyrogen population; [15]) of 0.53 g/L. For the same compound, the “OD @600 nm” value (butyrogen population; [15]) was 0.92, the n-Butanol (butyrogen population; [15]) was 0.19 g/L and the Acetic acid (butyrogen population; [16]) was 8.75 g/L. The Butyric acid (butyrogen population; [16]) was 1.36 g/L, the EtOH (butyrogen population; [16]) was 0.88 g/L and the “OD @600 nm” value (butyrogen population; [16]) was 1.12. For the same compound, the n-Butanol (butyrogen population; [16]) was 0.26 g/L, the Acetic acid (butyrogen population; [17]) was 8.83 g/L and the Butyric acid (butyrogen population; [17]) was 1.11 g/L. For the same compound, the EtOH (butyrogen population; [17]) was 0.95 g/L, the “OD @600 nm” value (butyrogen population; [17]) was 1.38 and the n-Butanol (butyrogen population; [17]) was 0.28 g/L. For the same compound, the Acetic acid (butyrogen population; [18]) was 8.86 g/L, the Butyric acid (butyrogen population; [18]) was 1.12 g/L and the EtOH (butyrogen population; [18]) was 0.87 g/L. For the same compound, the “OD @600 nm” value (butyrogen population; [18]) was 1.18, the n-Butanol (butyrogen population; [18]) was 0.24 g/L and the Acetic acid (butyrogen population; [19]) was 9.05 g/L. The Butyric acid (butyrogen population; [19]) was 1.13 g/L, the EtOH (butyrogen population; [19]) was 0.84 g/L and the “OD @600 nm” value (butyrogen population; [19]) was 1.24. It also gave a n-Butanol (butyrogen population; [19]) of 0.21 g/L, an Acetic acid (butyrogen population; [20]) of 9.21 g/L and a Butyric acid (butyrogen population; [20]) of 1.17 g/L. The EtOH (butyrogen population; [20]) was 0.82 g/L, the “OD @600 nm” value (butyrogen population; [20]) was 1.25 and the n-Butanol (butyrogen population; [20]) was 0.21 g/L.
